Measured values taken from ChEMBL document CHEMBL3217624, “Probing androgen receptor co-factor selectivity profiles: a chemical tool to determine cross-talk between androgen receptor and -catenin in vivo” (Medchemcomm, 2013).
Calls of active or inactive are those of the source. The rule behind the calls is not given here.

Columns and labels:
Rattus norvegicus [1] = experiment: Androgenic activity in ORX rat model assessed as restoration of hepatic hydroxyacid oxidase2 expression at 10 to 30 mg/kg, sc qd after 11 days by RT-PCR analysis relative to sham control; type: functional; settings: dose mg/kg 10-30; route subcutaneous
Rattus norvegicus [2] = experiment: Androgenic activity in sc dosed ORX rat model assessed as increase in hepatic carnitine palmitoyltransferase1 expression after 11 days by RT-PCR analysis relative to sham control; type: functional
Rattus norvegicus [3] = experiment: Androgenic activity in ORX rat model assessed as reduction in plasma luteinizing hormone level at 30 mg/kg, sc qd after 11 days relative to sham control; type: functional, organism-based; set-up: dose 30 mg/kg
Rattus norvegicus [4] = experiment: Androgenic activity in ORX rat model assessed as reduction in plasma luteinizing hormone level at 3 mg/kg, sc qd after 11 days relative to sham control; type: functional, organism-based; set-up: dose 3 mg/kg
Rattus norvegicus [5] = experiment: Androgenic activity in ORX rat model assessed as reduction in plasma luteinizing hormone level at 10 mg/kg, sc qd after 11 days relative to sham control; type: functional, organism-based; set-up: dose 10 mg/kg
Rattus norvegicus [6] = experiment: Androgenic activity in ORX rat model assessed as effect on seminal vesicle weight at 3 to 30 mg/kg, sc qd after 11 days relative to sham control; type: functional, organism-based
[7] = biological target: T1, Androgen receptor (Homo sapiens) (UniProt P10275); experiment: Agonist activity at human AR expressed in African green monkey CV1 cells assessed as supression of beta-catenin at 1000 nM after 17 hrs by Wnt 12xTcf-luciferase reporter gene assay relative to control; type: cell-based; settings: CV-1
T1 sequence (whole entry): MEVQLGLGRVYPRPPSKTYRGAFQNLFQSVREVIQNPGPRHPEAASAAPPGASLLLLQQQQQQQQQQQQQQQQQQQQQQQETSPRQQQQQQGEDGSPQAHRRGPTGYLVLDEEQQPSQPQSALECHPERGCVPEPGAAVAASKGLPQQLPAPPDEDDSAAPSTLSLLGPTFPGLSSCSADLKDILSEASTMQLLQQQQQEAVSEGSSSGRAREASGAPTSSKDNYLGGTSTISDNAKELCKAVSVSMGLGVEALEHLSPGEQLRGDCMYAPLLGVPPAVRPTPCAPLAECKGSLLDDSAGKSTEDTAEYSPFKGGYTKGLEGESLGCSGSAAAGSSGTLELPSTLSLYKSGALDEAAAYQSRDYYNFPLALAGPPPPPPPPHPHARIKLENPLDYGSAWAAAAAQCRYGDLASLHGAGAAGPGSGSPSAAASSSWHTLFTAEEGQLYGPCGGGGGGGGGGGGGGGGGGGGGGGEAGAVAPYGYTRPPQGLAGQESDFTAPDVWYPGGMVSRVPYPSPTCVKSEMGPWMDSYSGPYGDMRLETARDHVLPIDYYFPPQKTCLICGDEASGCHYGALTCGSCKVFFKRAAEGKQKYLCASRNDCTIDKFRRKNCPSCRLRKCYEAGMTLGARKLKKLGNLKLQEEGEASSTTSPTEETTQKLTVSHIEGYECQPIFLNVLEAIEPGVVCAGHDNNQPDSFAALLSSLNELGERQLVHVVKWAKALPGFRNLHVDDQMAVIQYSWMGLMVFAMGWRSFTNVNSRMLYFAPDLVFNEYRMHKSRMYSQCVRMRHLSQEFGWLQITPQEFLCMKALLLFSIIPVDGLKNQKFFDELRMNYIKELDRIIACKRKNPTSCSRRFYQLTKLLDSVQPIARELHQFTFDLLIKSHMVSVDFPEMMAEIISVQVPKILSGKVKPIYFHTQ

Androgen receptor [8] = biological target: T2, Androgen receptor (Homo sapiens, UniProt P10275); experiment: Agonist activity at human AR expressed in African green monkey CV1 cells after 17 hrs by ARE-driven luciferase reporter gene assay; type: cell-based, CV-1
T2 sequence (P10275 whole entry): T1 sequence (whole entry)

Androgen receptor [9] = biological target: T2, Androgen receptor; experiment: Displacement of [3H]mibolerone from human AR expressed in COS cells after 3.5 hrs by liquid scintillation counting analysis; type: cell-based
Rattus norvegicus [10] = experiment: Androgenic activity in ORX rat model assessed as restoration of hepatic hydroxyacid oxidase2 expression at 1 mg/kg, sc qd after 11 days by RT-PCR analysis relative to sham control; type: functional, organism-based; set-up: dose 1 mg/kg
Rattus norvegicus [11] = experiment: Androgenic activity in ORX rat model assessed as increase in hepatic carnitine palmitoyltransferase1 expression at 1 mg/kg, sc qd after 11 days by RT-PCR analysis relative to sham control; type: functional; settings: route subcutaneous
Rattus norvegicus [12] = experiment: Androgenic activity in ORX rat model assessed as reduction in plasma luteinizing hormone level at 1 mg/kg, sc qd after 11 days relative to sham control; type: functional, organism-based; set-up: dose 1 mg/kg
Rattus norvegicus [13] = experiment: Androgenic activity in ORX rat model assessed as increase in seminal vesicle weight at 1 mg/kg, sc qd after 11 days relative to sham control; type: functional, organism-based; set-up: dose 1 mg/kg
Rattus norvegicus [14] = experiment: Androgenic activity in ORX rat model assessed as increase in prostate weight at 1 mg/kg, sc qd after 11 days relative to sham control; type: functional, organism-based; set-up: dose 1 mg/kg; settings: Prostate gland
Rattus norvegicus [15] = experiment: Androgenic activity in ORX rat model assessed as increase in levator ani muscle weight at 1 mg/kg, sc qd after 11 days relative to sham control; type: functional, organism-based; set-up: dose 1 mg/kg

Row | Compound | fold change (FC) (Rattus norvegicus [1]) | Activity (Rattus norvegicus [2]) | fold change (FC) (Rattus norvegicus [2]) | Activity (Rattus norvegicus [3]) | Activity (Rattus norvegicus [4]) | Activity (Rattus norvegicus [5]) | Activity (Rattus norvegicus [6]) | Activity [7] [%] | EC50 (Androgen receptor [8]) [nM] | IC50 (Androgen receptor [9]) [nM] | Activity (Rattus norvegicus [10]) | fold change (FC) (Rattus norvegicus [11]) | Activity (Rattus norvegicus [12]) | Activity (Rattus norvegicus [13]) | Activity (Rattus norvegicus [14]) | Activity (Rattus norvegicus [15])
1 | CN1C(=O)C(F)=C[C@]2(C)[C@H]3CC[C@]4(C)[C@@H](C(=O)NCc5nc6cccnc6[nH]5)CC[C@H]4[C@@H]3CC[C@@H]12 [MK-0773] | 2.5 | Dose-dependent effect | 2 | inactive | inactive | Active | inactive | 32 | 144 | 196 |  |  |  |  |  | 
2 | CCC(=O)O[C@H]1CC[C@H]2[C@@H]3CCC4=CC(=O)CC[C@]4(C)[C@H]3CC[C@]12C [TESTOSTERONE PROPIONATE] |  |  |  |  |  |  |  |  |  | 18 | Active | 2 | Active | Active | Active | Active
